Test results published in PubChem BioAssay (NCI).
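Five compound concentrations were applied to cells in 96-well plates for 48 hours; endpoints were derived by simple linear interpolation of the resulting dose-response curve. Abbreviation: GI50, concentration required for 50% inhibition of growth. TGI denotes the concentration required for complete inhibition of growth.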

Key:
Assay in all cases: inhibition of tumour cell growth, NCI panel, 48 h
[1] = system: UACC-257 melanoma
[2] = system: NCI-H23 lung
[3] = system: NCI-H460 lung
[4] = system: KM12 colon
[5] = system: MDA-N

SMILES: NCCCN(CCCCN(CCCN)CCCc1ccccc1)CCCc1ccccc1
- TGI [1]: 3.45 µM
- TGI [2]: 17.4 µM
- TGI [3]: 2.72 µM
- TGI [4]: 6.43 µM
- TGI [5]: 3.23 µM

SMILES: CSc1c(C(C)=O)c(O)n(-c2ccc(C)cc2)c(=O)c1C#N
- TGI [1]: > 100 µM
- TGI [2]: > 100 µM
- TGI [3]: > 100 µM
- TGI [4]: > 100 µM

SMILES: C[N+]1(C)CCCC(C#N)(c2ccccc2)CC1 (configuration not stated)
- TGI [1]: > 100 µM
- TGI [2]: > 100 µM
- TGI [3]: > 100 µM
- TGI [4]: > 100 µM
- TGI [5]: > 100 µM

SMILES: O=C(NNC(=O)c1ccco1)c1ccco1
- TGI [1]: > 100 µM
- TGI [3]: > 100 µM
- TGI [4]: > 100 µM
- TGI [5]: > 100 µM

SMILES: ClC1=NSSC1(Cl)Cl
- TGI [1]: > 100 µM
- TGI [2]: > 100 µM
- TGI [3]: > 100 µM
- TGI [4]: > 100 µM
- TGI [5]: 62.1 µM

SMILES: C=C1OC2OC(C)C(NC(=O)OCC(Cl)(Cl)Cl)C(OC(C)=O)C2O1 (configuration not stated)
- TGI [1]: > 100 µM
- TGI [2]: > 100 µM
- TGI [3]: > 100 µM
- TGI [4]: > 100 µM

SMILES: CCOC(=O)C1=C(O)CC(=O)N=C1N1CCCC1
- TGI [1]: > 100 µM
- TGI [2]: > 100 µM
- TGI [4]: > 100 µM
- TGI [5]: > 100 µM

SMILES: CN(C(=O)Cc1ccccc1)n1cn[n+](CC(=O)OC(C)(C)C)c1
- TGI [1]: > 10 µM
- TGI [2]: > 10 µM
- TGI [3]: > 10 µM
- TGI [4]: > 10 µM
- TGI [5]: > 10 µM

SMILES: COc1ccc(OC)c2c(C(C)=O)cccc12
- TGI [1]: > 100 µM
- TGI [2]: > 100 µM
- TGI [3]: > 100 µM
- TGI [4]: > 100 µM

SMILES: Cc1ccc(/C=c2\cc3oc(=O)c4cccc(c4-3)c2=O)cc1
- TGI [1]: > 100 µM
- TGI [2]: > 100 µM
- TGI [3]: > 100 µM

SMILES: CN(C)C(=O)C(F)(F)C(c1ccccc1Br)C1C(=O)N(C)C(=O)N(C)C1=O (configuration not stated)
- TGI [1]: > 100 µM
- TGI [2]: > 100 µM
- TGI [3]: > 100 µM
- TGI [4]: > 100 µM

SMILES: Cc1nn2c(=O)c([N+](=O)[O-])c(/C=C/c3ccc(F)cc3)nc2s1
- TGI [1]: 22.3 µM
- TGI [2]: 23.5 µM
- TGI [3]: 22.9 µM
- TGI [4]: 16.3 µM
- TGI [5]: 15.8 µM

SMILES: CCOC(=O)c1ccc(N(CCOS(C)(=O)=O)CCOS(C)(=O)=O)cc1
- TGI [1]: > 100 µM
- TGI [2]: > 100 µM
- TGI [3]: > 100 µM
- TGI [4]: > 100 µM
- TGI [5]: > 100 µM

SMILES: CC1OC(OC2C(O)CC(OC3C(O)CC(OC4CCC5(C)C(CCC6C5CCC5(C)C(C7=CC(=O)OC7)C(O)CC65O)C4)OC3C)OC2C)CC(O)C1O (configuration not stated)
- TGI [1]: 2.07 µM
- TGI [2]: 0.313 µM
- TGI [3]: 0.532 µM
- TGI [5]: 1.11 µM

SMILES: CNC(=O)OCc1cnc([N+](=O)[O-])n1C
- TGI [1]: > 100 µM
- TGI [2]: > 100 µM
- TGI [3]: > 100 µM
- TGI [4]: > 100 µM
- TGI [5]: > 100 µM

SMILES: O=C(O)CN1C(=O)c2ccc(NC(=O)C(=O)O)cc2S1(=O)=O
- TGI [1]: > 100 µM
- TGI [2]: > 100 µM
- TGI [3]: > 100 µM
- TGI [4]: > 100 µM
- TGI [5]: > 100 µM

SMILES: Nc1nc(Sc2ccc([N+](=O)[O-])c3nonc23)c2[nH]cnc2n1
- TGI [1]: 9.14 µM
- TGI [2]: 10.9 µM
- TGI [3]: 10.7 µM
- TGI [4]: 15.3 µM
- TGI [5]: 12.2 µM

SMILES: C[C@]12CC[C@H]3[C@@H](CC=C4C[C@@H](O)CC[C@@]43C)[C@@H]1C/C(=C\c1cccnc1)[C@@H]2O
- TGI [1]: > 100 µM
- TGI [2]: > 100 µM
- TGI [3]: > 100 µM
- TGI [4]: > 100 µM
- TGI [5]: > 100 µM

SMILES: O=C(/C=C/c1ccc(OCc2ccccc2)cc1)NCc1ccc(C(=O)NCCc2ccccc2)cc1
- TGI [1]: > 100 µM
- TGI [2]: > 100 µM
- TGI [3]: > 100 µM
- TGI [4]: > 100 µM
- TGI [5]: > 100 µM

SMILES: C=CCOCC1C2CCC3(OCCO3)C21 (configuration not stated)
- TGI [1]: > 100 µM
- TGI [2]: > 100 µM
- TGI [3]: > 100 µM
- TGI [4]: > 100 µM
- TGI [5]: > 100 µM

SMILES: CO[C@@]12C[C@H](CNC(=O)c3ccc[nH]3)O[C@@H]1NC(=O)N2
- TGI [1]: > 100 µM
- TGI [2]: > 100 µM
- TGI [3]: > 100 µM
- TGI [4]: > 100 µM

SMILES: COc1ccc(-c2nc3ccccc3c(=O)[nH]2)cc1
- TGI [1]: > 100 µM
- TGI [2]: > 100 µM
- TGI [4]: > 100 µM
- TGI [5]: > 100 µM

SMILES: Cc1ccc(S(=O)(=O)OC[C@@]2(C)CC[C@]3(C)CC[C@]4(C)C(=C3C2)C=C[C@@H]2[C@@]3(C)CCCNC(C)(C)[C@@H]3CC[C@]24C)cc1
- GI50 [2]: 1.82 µM
- TGI [2]: 3.42 µM
- GI50 [4]: 1.86 µM
- TGI [4]: 3.57 µM

SMILES: O=C1Cc2cc3ccccc3nc2-c2ccccc2N1
- TGI [1]: > 100 µM
- TGI [2]: > 100 µM
- TGI [3]: > 100 µM
- TGI [4]: > 100 µM

SMILES: NC(Cc1ccccc1)C(=O)OCN1C(=O)C2C3C=CC(C2C1=O)C1C(=O)N(COC(=O)C(N)Cc2ccccc2)C(=O)C31 (configuration not stated)
- TGI [1]: > 100 µM
- TGI [2]: > 100 µM
- TGI [3]: > 100 µM
- TGI [5]: > 100 µM

SMILES: S=C(NCc1ccccn1)N/N=C/c1ccccn1
- TGI [1]: < 0.01 µM
- TGI [3]: 2.7 µM
- TGI [4]: > 100 µM
- TGI [5]: > 100 µM

SMILES: CN(C)C(=O)C(F)(F)C(c1ccccc1)C1C(=O)N(C)C(=O)N(C)C1=O (configuration not stated)
- TGI [1]: > 100 µM
- TGI [2]: > 100 µM
- TGI [3]: > 100 µM
- TGI [4]: > 100 µM

SMILES: CCCCCCCCCCCC1N=C(N)N=C(N)N1c1cccc(Br)c1 (configuration not stated)
- GI50 [2]: 1.18 µM
- TGI [2]: 2.69 µM
- GI50 [3]: 0.0779 µM
- TGI [3]: 1.65 µM

SMILES: COC(=O)c1ccccc1CC1Cc2c(C)ccc(C)c2C1=O (configuration not stated)
- TGI [1]: 48.2 µM
- TGI [2]: 55.2 µM
- TGI [3]: > 100 µM
- TGI [4]: 76.1 µM
